We go through one compound from US20260272936A1, “TREATMENT OF CANCER WITH A PARG INHIBITOR” (858 Therapeutics, Inc., priority 2023, published 2026).

In one data set the test system is HCC1806 cells. The data set is described as follows: 6-day growth assay, Compound 1 in combination with exatecan. To be noted: Homo sapiens. Type of data set: cell-based. On the procedure:
(§1) The activity of Compound 1 in combination with exatecan was evaluated in the HCC1954, HCC1806, and GP2D cancer cell lines in a 6-day growth assay. HCC1954 (Cat #CRL-2338) and HCC1806 (Cat #CRL-2335) cells were obtained from American Type Culture Collection (ATCC) and maintained in ATCC modified RPMI (Cat #30-2001)+10% FBS (Cat #A3160502)+1% penicillin/streptomycin (Cat #15140-122) in a humidified incubator at 37° C., 5% CO2. GP2D cells were obtained from ECACC (Cat #95090714-1VL) and maintained in DMEM+GlutaMAX (Cat #10566-016)+10% FBS (Cat #A3160502)+1% penicillin/streptomycin (Cat #15140-122). Cells were seeded at 2,500 cells/well (HCC1954 and GP2D) or 2,000 cells/well (HCC1806) in 100 μL of growth medium in a 96-well plate (Corning costar Cat #3603) and allowed to adhere overnight at 37° C. with 5% CO2. The next day, serial dilutions of Compound 1 and exatecan were prepared and added to the corresponding wells of a 96-well plate. A solution of 0.1% DMSO in medium was used as the negative control. Cells were incubated with compound for 6 days at 37° C. with 5% CO2, then fixed, stained, and counted as described in Example 3. Concentration response-curves and IC50 values were generated by non-linear regression analysis using a 4-parameter variable slope fit in GraphPad Prism 10 software. Potential synergy between Compound 1 and exatecan was assessed using Zero interaction potency (ZIP), Highest Single Agent (HSA), Bliss, and Loewe synergy models to find the most synergistic area score, where scores >10 indicate that the interaction between the two drugs is likely to be synergistic (Ianevski et al. 2020).

For the next data set, the system named is HCC1954 cells. The description is as above. It is filed as cell-based. To be noted: Homo sapiens. How it is done: as §1
A further data set relates to HCC1806 xenograft. The data set is described as follows: HCC1806 triple negative breast cancer CDX, combination with camonsertib (RP-3500). Also on record: species or system Athymic nude mice. Conditions: mouse, in vivo. On the procedure: HCC1806 cells were cultured in RPMI medium containing 10% FBS (Thermo Fisher Scientific Cat #A31605-02) and penicillin+streptomycin (Thermo Fisher Scientific Cat #15070-063). The CDX model was established by subcutaneous inoculation of 1×10^6 HCC1806 cells/mouse into the right flank of Athymic nude mice (The Jackson Laboratory, Bar Harbor, ME, USA, Cat #002019). […] Compound 1 was administered to mice at 200 mg/kg to mice orally once daily from Monday through Friday throughout the treatment period and camonsertib (RP-3500) was administered at 15 mg/kg orally once daily from Monday through Wednesday throughout the treatment period (Table 11).
Tumor volumes and body weights were measured twice weekly. […] Statistical analysis of end-of-study tumor volumes relative to the vehicle group tumor volume was performed using Kruskal-Wallis Anova test with Dunn's multiple comparisons test.

The next data set has as its target T1, 5-HT2A receptor (Homo sapiens, UniProt P28223).
T1 construct: Eurofins (contract study)
The data set is described as follows: Follow-on study, agonist and antagonist IC50. Type of data set: binding. Conditions: antagonist.

T1 sequence (P28223 whole entry): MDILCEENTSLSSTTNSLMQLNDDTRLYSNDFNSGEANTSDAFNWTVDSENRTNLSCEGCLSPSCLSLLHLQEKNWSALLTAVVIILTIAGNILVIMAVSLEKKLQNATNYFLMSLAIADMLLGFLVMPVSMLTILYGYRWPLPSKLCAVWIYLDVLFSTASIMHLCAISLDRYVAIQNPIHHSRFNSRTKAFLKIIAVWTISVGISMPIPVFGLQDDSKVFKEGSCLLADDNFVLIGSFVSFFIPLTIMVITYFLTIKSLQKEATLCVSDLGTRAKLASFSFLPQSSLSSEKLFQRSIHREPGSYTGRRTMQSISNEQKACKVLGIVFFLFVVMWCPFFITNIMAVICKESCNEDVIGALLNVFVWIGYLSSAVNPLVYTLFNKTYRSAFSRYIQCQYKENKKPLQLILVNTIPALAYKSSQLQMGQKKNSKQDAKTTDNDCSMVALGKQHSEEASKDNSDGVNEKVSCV

For `[2H]C([2H])(c1cnn(C)c1)N1C(=O)c2cc(S(=O)(=O)NC3(C)CC3)ccc2N2C1=NC[C@H]2C` [Compound 1, (R)-1-methyl-4-((1-methyl-1H-pyrazol-4-yl)methyl-d2)-N-(1-methylcyclopropyl)-5-oxo-1,2,4,5-tetrahydroimidazo[1,2-a]quinazoline-7-sulfonamide], the IC50 – broadly, the concentration that inhibits the measured activity by half – with HCC1806 cells (exatecan 0.001 nM) worked out at 1.9 µM; in the data set with HCC1806 cells (exatecan 0.01 nM), 1.5 µM; in the data set with HCC1806 cells (exatecan 0.03 nM), 1.2 µM; with HCC1806 cells (exatecan 0.1 nM), 0.3 µM; with HCC1954 cells (exatecan 0.001 nM) it was 6.9 µM; in the data set with HCC1954 cells (exatecan 0.01 nM), 7.2 µM. For the same compound, the IC50 with HCC1954 cells (exatecan 0.03 nM) stood at 6.6 µM; with HCC1954 cells (exatecan 0.1 nM), 5.2 µM; in the data set with HCC1954 cells (exatecan 0.3 nM), 0.9 µM; at 5-HT2A receptor, 21 µM. For the same compound, the “body weight change during the treatment period” value in the data set with HCC1806 xenograft was “body weight gains”. Further, at 5-HT2A receptor (read-out: dissociation constant (KB)), the Kb – broadly, the affinity of an antagonist, worked out from how it opposes an agonist – was 4.2 µM.
